The values below come from ChEMBL document CHEMBL3046944, “NEW QUASSINOIDS FROM AILANTHUS EXCELSA” (Med Chem Res, 2004).

The test system of assay [1] is Plasmodium falciparum. The assay is described as follows: Antimalarial activity against Plasmodium falciparum assessed as growth inhibition at 0.2 uM. It is filed as functional, organism-based.
The test system of assay [2] is Plasmodium falciparum. As to the kind of experiment: Antimalarial activity against Plasmodium falciparum assessed as growth inhibition at 25 nM. It is filed as functional, organism-based.

Calls of active or inactive are those of the source. No cut-off for these calls is given here.

For `CCC(C)C(=O)O[C@H]1C(=O)O[C@@H]2C[C@H]3C(C)=C[C@H](O)[C@@H](O)[C@]3(C)[C@H]3[C@@]4(O)OC[C@]32[C@@H]1[C@@H](C)[C@H]4O` (some centres not stated), the “growth inhibition (GI)” value in the assay with Plasmodium falciparum [1] is “Active”.

With `CCN(CC)CCCC(C)Nc1ccnc2cc(Cl)ccc12` (configuration not stated), in the assay on Plasmodium falciparum [2], the “growth inhibition (GI)” value is “Active”.
